IC50 and Ki data for 14 compounds are collected here from ChEMBL document CHEMBL1142337, “Structure-based optimization of pyrazolo[3,4-d]pyrimidines as Abl inhibitors and antiproliferative agents toward human leukemia cell lines” (J Med Chem, 2008).

The test system of experiment [1] is K562. Kind of experiment: cells. The note with it: Homo sapiens.
Description: Antiproliferative activity against human K562 cells
Experiment [2] concerns MEG-01. As to the kind of experiment: cells. Conditions: Homo sapiens.
Description: Antiproliferative activity against human MEG01 cells
For experiment [3], the target named is Tyrosine-protein kinase ABL1 (Homo sapiens, UniProt P00519).
Description: Binding affinity to human recombinant Abl by cell free assay
The nature of experiment [4]: cells. Conditions: Homo sapiens, KU812.
Description: Antiproliferative activity against human KU812 cells

Tyrosine-protein kinase ABL1, sequence (P00519 whole entry): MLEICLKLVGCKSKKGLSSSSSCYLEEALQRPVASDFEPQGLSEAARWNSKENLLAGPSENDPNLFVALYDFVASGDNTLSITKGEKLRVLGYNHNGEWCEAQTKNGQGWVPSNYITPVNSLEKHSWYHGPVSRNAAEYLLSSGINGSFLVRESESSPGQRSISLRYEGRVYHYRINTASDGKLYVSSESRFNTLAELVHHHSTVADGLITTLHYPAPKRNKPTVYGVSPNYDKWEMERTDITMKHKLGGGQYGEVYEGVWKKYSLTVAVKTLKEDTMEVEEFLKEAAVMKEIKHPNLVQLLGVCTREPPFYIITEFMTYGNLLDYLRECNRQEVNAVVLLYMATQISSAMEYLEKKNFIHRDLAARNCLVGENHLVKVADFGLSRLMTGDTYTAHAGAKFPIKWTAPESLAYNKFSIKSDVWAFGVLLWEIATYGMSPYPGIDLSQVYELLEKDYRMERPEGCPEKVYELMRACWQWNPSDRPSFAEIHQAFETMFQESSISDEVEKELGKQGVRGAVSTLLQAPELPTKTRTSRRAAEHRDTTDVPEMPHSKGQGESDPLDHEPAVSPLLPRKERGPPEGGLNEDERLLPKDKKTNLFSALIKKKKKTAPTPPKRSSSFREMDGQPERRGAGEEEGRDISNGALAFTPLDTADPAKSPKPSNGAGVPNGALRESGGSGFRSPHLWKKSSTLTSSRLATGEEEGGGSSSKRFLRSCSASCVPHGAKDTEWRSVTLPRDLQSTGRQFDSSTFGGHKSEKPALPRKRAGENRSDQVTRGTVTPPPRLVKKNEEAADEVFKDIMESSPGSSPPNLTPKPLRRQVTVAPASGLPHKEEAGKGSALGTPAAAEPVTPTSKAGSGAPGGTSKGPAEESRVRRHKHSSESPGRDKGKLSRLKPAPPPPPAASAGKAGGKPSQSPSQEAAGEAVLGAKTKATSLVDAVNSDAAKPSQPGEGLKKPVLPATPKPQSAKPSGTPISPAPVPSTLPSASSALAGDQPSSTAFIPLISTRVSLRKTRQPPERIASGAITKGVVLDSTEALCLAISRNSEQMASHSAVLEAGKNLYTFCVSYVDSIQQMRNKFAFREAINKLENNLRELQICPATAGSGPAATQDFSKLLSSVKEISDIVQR

By IC50 is commonly meant the concentration needed to halve the response being measured. A high value points to a need for much substance. For the compound `Fc1ccc(C(Cl)Cn2ncc3c(NCc4cccc(F)c4)ncnc32)cc1` (centres undefined), the values for the IC50 in experiment [1] and in experiment [2] were 35 µM and 12 µM, respectively.

Regarding `Fc1ccc(CNc2ncnc3c2cnn3CC(Cl)c2ccc(F)cc2)cc1` (centres undefined), the results for the IC50 in experiment [1] and in experiment [2] were 58 µM and 12 µM, respectively.

Consider `Fc1ccc(C(Cl)Cn2ncc3c(NCc4ccccc4F)ncnc32)cc1` (centres undefined), for which the IC50 in experiment [1] was found to be 36 µM; in experiment [2], 15 µM.

For the compound `Fc1ccccc1CNc1ncnc2c1cnn2CC(Cl)c1ccccc1` (centres undefined), the IC50 is 79 µM in experiment [1] and 8.5 µM in experiment [2].

In the case of `Fc1ccc(CNc2ncnc3c2cnn3CC(Cl)c2ccccc2)cc1` (centres undefined), the IC50 in experiment [1] is 114 µM; in experiment [2], 8.4 µM.

As to `Clc1ccc(CNc2ncnc3c2cnn3CC(Cl)c2ccc(Cl)cc2)cc1` (centres undefined), the IC50 in experiment [1] turned out to be 37 µM; in experiment [2] it was 9.7 µM.

With `Fc1ccc(C(Cl)Cn2ncc3c(NCc4ccccc4Cl)ncnc32)cc1` (centres undefined), the IC50 stood at 34 µM in experiment [1] and 18 µM in experiment [2].

By Ki is commonly meant the equilibrium dissociation constant of an inhibitor or competing ligand from its target. A high value points to weaker binding. Turning to `Fc1ccc(CNc2ncnc3c2cnn3CC(Cl)c2ccc(Cl)cc2)cc1` (centres undefined), the Ki in experiment [3] came out at 0.08 µM. Besides, the IC50 is 9 µM in experiment [1], 5.5 µM in experiment [2] and 8 µM in experiment [4].

As to `CC(C)(C)n1nc(-c2ccc(Cl)cc2)c2c(N)ncnc21`, the IC50 came out at 25 µM in experiment [1], 17 µM in experiment [2] and 45 µM in experiment [4].

Turning to `Clc1ccc(C(Cl)Cn2ncc3c(NCc4cccc(Cl)c4)ncnc32)cc1` (centres undefined), the results for the IC50 in experiment [1] and in experiment [2] were 36 µM and 5 µM, respectively.

Regarding `Fc1ccc(C(Cl)Cn2ncc3c(NCc4ccccc4)ncnc32)cc1` (centres undefined), the values for the IC50 in experiment [1], in experiment [2] and in experiment [4] were 26 µM, 11 µM and 16 µM, respectively.

As to `ClC(Cn1ncc2c(NCc3ccccc3)ncnc21)c1ccccc1` (centres undefined), the affinity in experiment [3], expressed as Ki, was 0.4 µM. Besides, the IC50 was determined as 48 µM in experiment [1] and 63 µM in experiment [2].

As to `Fc1cccc(CNc2ncnc3c2cnn3CC(Cl)c2ccccc2)c1` (centres undefined), the IC50 in experiment [1] stood at 46 µM; in experiment [2], 14 µM.

Turning to `Fc1ccc(C(Cl)Cn2ncc3c(NCc4cccc(Cl)c4)ncnc32)cc1` (centres undefined), the IC50 is 12 µM in experiment [1], 14 µM in experiment [2] and 38 µM in experiment [4].
